Experimental data reported in patent US11925624B2, “Methods of administering anti-fibrotic therapy” (GENENTECH, INC., priority 2016, dated 2024).

What was measured:
[1] = Serum creatinine (Scr) change from baseline, SAD study (Part A); type: in vivo, human; details: for Number of subjects with change in Scr <0.3 mg/dL from baseline / Number of subjects with change in Scr ≥0.3 mg/dL from baseline / Number of subjects with percent change in Scr <30% from baseline / Number of subjects with percent change in Scr ≥30% from baseline: SAD
Protocol: (§1) In addition to the measurement of various PK parameters in both parts of the study, the changes in the subjects' serum creatinine levels were also evaluated in this study. Tables 6A and 6B summarize the change in level and percent change in serum creatinine from averaged screening and pre-dosing values for the subjects in SAD study in each treatment group, as applicable. Tables 7A and 7B summarize the change in level and percent change in scrum creatinine from averaged screening and pre-dosing values for the subjects in MAD study. […] In Part B of the study, 2 subjects (275 mg BID) experienced clinically significant TEAEs of increased creatinine on day 5. The mean change in serum creatinine from a combined screening and pre-dose baseline in the MAD part of the study is illustrated in FIG. 1. In addition, the mean change in creatinine level from combined screening and pre-dose level in the MAD part of the study is illustrated in FIG. 2.

[2] = Serum creatinine (Scr) change from baseline, MAD study (Part B); type: in vivo, human; details: for Number of subjects with change in Scr <0.3 mg/dL from baseline / Number of subjects with change in Scr ≥0.3 mg/dL from baseline / Number of subjects with percent change in Scr <30% from baseline / Number of subjects with percent change in Scr ≥30% from baseline: MAD
Protocol: as §1

Exposures with increases over the upper limit of normal (ULN) in serum creatinine ([1]; Part A (SAD), exposures of doses of 200 mg or more): about 21%
Number of subjects with change in Scr <0.3 mg/dL from baseline ([1]; 25 mg): 6
Number of subjects with change in Scr ≥0.3 mg/dL from baseline ([1]; 25 mg): 0
Number of subjects with percent change in Scr <30% from baseline ([1]; 25 mg): 6
Number of subjects with percent change in Scr ≥30% from baseline ([1]; 25 mg): 0
Number of subjects with change in Scr <0.3 mg/dL from baseline ([1]; 75 mg): 6
Number of subjects with change in Scr ≥0.3 mg/dL from baseline ([1]; 75 mg): 0
Number of subjects with percent change in Scr <30% from baseline ([1]; 75 mg): 6
Number of subjects with percent change in Scr ≥30% from baseline ([1]; 75 mg): 0
Number of subjects with change in Scr <0.3 mg/dL from baseline ([1]; 200 mg): 6
Number of subjects with change in Scr ≥0.3 mg/dL from baseline ([1]; 200 mg): 0
Number of subjects with percent change in Scr <30% from baseline ([1]; 200 mg): 6
Number of subjects with percent change in Scr ≥30% from baseline ([1]; 200 mg): 0
Number of subjects with change in Scr <0.3 mg/dL from baseline ([1]; 400 mg Fasted): 10
Number of subjects with change in Scr ≥0.3 mg/dL from baseline ([1]; 400 mg Fasted): 2
Number of subjects with percent change in Scr <30% from baseline ([1]; 400 mg Fasted): 9
Number of subjects with percent change in Scr ≥30% from baseline ([1]; 400 mg Fasted): 3
Number of subjects with change in Scr <0.3 mg/dL from baseline ([1]; 800 mg Fasted): 5
Number of subjects with change in Scr ≥0.3 mg/dL from baseline ([1]; 800 mg Fasted): 1
Number of subjects with percent change in Scr <30% from baseline ([1]; 800 mg Fasted): 4
Number of subjects with percent change in Scr ≥30% from baseline ([1]; 800 mg Fasted): 2
Number of subjects with change in Scr <0.3 mg/dL from baseline ([1]; 1600 mg): 6
Number of subjects with change in Scr ≥0.3 mg/dL from baseline ([1]; 1600 mg): 0
Number of subjects with percent change in Scr <30% from baseline ([1]; 1600 mg): 6
Number of subjects with percent change in Scr ≥30% from baseline ([1]; 1600 mg): 0
Subjects with mean change from baseline ≥0.3 mg/dL in Scr ([2]; MAD study, all subjects): 25%
Subjects with mean percent change from baseline ≥30% in Scr ([2]; MAD study, all subjects): 50%
Number of subjects with change in Scr <0.3 mg/dL from baseline ([2]; 400 mg (200 mg BID)): 5
Number of subjects with change in Scr ≥0.3 mg/dL from baseline ([2]; 400 mg (200 mg BID)): 1
Number of subjects with percent change in Scr <30% from baseline ([2]; 400 mg (200 mg BID)): 1
Number of subjects with percent change in Scr ≥30% from baseline ([2]; 400 mg (200 mg BID)): 5
Number of subjects with change in Scr <0.3 mg/dL from baseline ([2]; 525 mg): 5
Number of subjects with change in Scr ≥0.3 mg/dL from baseline ([2]; 525 mg): 1
Number of subjects with percent change in Scr <30% from baseline ([2]; 525 mg): 3
Number of subjects with percent change in Scr ≥30% from baseline ([2]; 525 mg): 3
Number of subjects with change in Scr <0.3 mg/dL from baseline ([2]; 550 mg (275 mg BID)): 2
Number of subjects with change in Scr ≥0.3 mg/dL from baseline ([2]; 550 mg (275 mg BID)): 4
Number of subjects with percent change in Scr <30% from baseline ([2]; 550 mg (275 mg BID)): 2
Number of subjects with percent change in Scr ≥30% from baseline ([2]; 550 mg (275 mg BID)): 4
Subjects with increases over the upper limit of normal (ULN) in serum creatinine ([2]; Part B (MAD), across all dose levels): about 56%
SMILES: Cn1cc(-c2cn(-c3ccc(OC(F)(F)F)cc3)c(=O)c3ncn(C)c23)cn1 [Compound I]
Subjects with clinically significant TEAEs of increased creatinine ([2]; Part B, 275 mg BID, day 5): 2 subjects
